# Key:
# bipinnate beggarticks = assay: Test E pre-/postemergence herbicide test; format: in vivo, Bidens bipinnata
# Outline: (§1)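 Visual 0–100 rating vs untreated controls (0 = no effect, 100 = complete control), 12–14 d after treatment in greenhouse. Pre- and postemergence (2–18 cm, 1- to 4-leaf) applications; compounds in non-phytotoxic solvent with surfactant.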
# large crabgrass = assay: Test E pre-/postemergence herbicide test; format: in vivo, Digitaria sanguinalis
# Outline: as §1
# common ragweed = assay: Test E pre-/postemergence herbicide test; format: in vivo, Ambrosia elatior
# Outline: as §1
# dallisgrass = assay: Test E pre-/postemergence herbicide test; format: in vivo, Paspalum dilatatum
# Outline: as §1
# common sowthistle = assay: Test E pre-/postemergence herbicide test; format: in vivo, Sonchus oleraceous
# Outline: as §1
# prickly sida = assay: Test E pre-/postemergence herbicide test; format: in vivo, Sida spinosa
# Outline: as §1
# common purslane = assay: Test E pre-/postemergence herbicide test; format: in vivo, Portulaca oleracea
# Outline: as §1
# common groundsel = assay: Test E pre-/postemergence herbicide test; format: in vivo, Senecio vulgaris
# Outline: as §1
# annual bluegrass = assay: Test E pre-/postemergence herbicide test; format: in vivo, Poa annua
# Outline: as §1
# itchgrass = assay: Test E pre-/postemergence herbicide test; format: in vivo, Rottboellia cochinchinensis
# Outline: as §1
# quackgrass = assay: Test E pre-/postemergence herbicide test; format: in vivo, Elytrigia repens
# Outline: as §1
# field bindweed = assay: Test E pre-/postemergence herbicide test; format: in vivo, Convolvulus arvensis
# Outline: as §1
# windgrass = assay: Test C postemergence herbicide test; format: in vivo, Apera spica-venti
# Outline: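 After a postemergence application at 1 to 4 leaves (plants 2–18 cm high), or at 2 leaves for barnyardgrass in flooded paddy, plants stayed in the greenhouse for 12 to 14 days. Damage was then judged visually relative to control plants, with 100 indicating complete control.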
# [1] = Postemergence, 500 g ai/ha, scale 0 to 100
# [2] = Postemergence, 250 g ai/ha, scale 0 to 100
# [3] = postemergence, 125 g ai/ha, scale 0 to 100
# [4] = postemergence, 62 g ai/ha, scale 0 to 100
# [5] = Preemergence, 62 g ai/ha, scale 0 to 100
# [6] = Preemergence, 125 g ai/ha, scale 0 to 100
# [7] = Preemergence, 250 g ai/ha, scale 0 (no effect) to 100 (complete control)
# [8] = Preemergence, 500 g ai/ha, scale 0 (no effect) to 100 (complete control)
structure (smiles),measurement,setting,value
CCn1nc(C2(C)CC2)cc1C(=O)Nc1cc(C(=O)N(C)C)ccc1F [Compound 299],"Plant response rating, Beggarticks, Bip.",bipinnate beggarticks; [1],80
same,"Plant response rating, Beggarticks, Bip.",bipinnate beggarticks; [2],60
same,"Plant response rating, Beggarticks, Bip.",bipinnate beggarticks; [3],60
same,"Plant response rating, Beggarticks, Bip.",bipinnate beggarticks; [4],40
same,"Plant response rating, Crabgrass, Large",large crabgrass; [1],95
same,"Plant response rating, Crabgrass, Large",large crabgrass; [2],95
same,"Plant response rating, Crabgrass, Large",large crabgrass; [5],90
same,"Plant response rating, Crabgrass, Large",large crabgrass; [6],100
same,"Plant response rating, Crabgrass, Large",large crabgrass; [7],100
same,"Plant response rating, Crabgrass, Large",large crabgrass; [8],100
same,"Plant response rating, Crabgrass, Large",large crabgrass; [3],85
same,"Plant response rating, Crabgrass, Large",large crabgrass; [4],75
same,"Plant response rating, Ragweed",common ragweed; [1],90
same,"Plant response rating, Ragweed",common ragweed; [2],70
same,"Plant response rating, Ragweed",common ragweed; [5],20
same,"Plant response rating, Ragweed",common ragweed; [6],85
same,"Plant response rating, Ragweed",common ragweed; [7],90
same,"Plant response rating, Ragweed",common ragweed; [8],100
same,"Plant response rating, Ragweed",common ragweed; [3],60
same,"Plant response rating, Ragweed",common ragweed; [4],30
same,"Plant response rating, Dallisgrass",dallisgrass; [1],85
same,"Plant response rating, Dallisgrass",dallisgrass; [2],75
same,"Plant response rating, Dallisgrass",dallisgrass; [5],75
same,"Plant response rating, Dallisgrass",dallisgrass; [6],85
same,"Plant response rating, Dallisgrass",dallisgrass; [7],100
same,"Plant response rating, Dallisgrass",dallisgrass; [8],100
same,"Plant response rating, Dallisgrass",dallisgrass; [3],70
same,"Plant response rating, Dallisgrass",dallisgrass; [4],50
same,"Plant response rating, Sowthistle",common sowthistle; [2],95
same,"Plant response rating, Sowthistle",common sowthistle; [5],100
same,"Plant response rating, Sowthistle",common sowthistle; [6],100
same,"Plant response rating, Sowthistle",common sowthistle; [7],100
same,"Plant response rating, Sowthistle",common sowthistle; [8],95
same,"Plant response rating, Sowthistle",common sowthistle; [3],85
same,"Plant response rating, Sowthistle",common sowthistle; [4],30
same,"Plant response rating, Prickly Sida",prickly sida; [1],95
same,"Plant response rating, Prickly Sida",prickly sida; [2],95
same,"Plant response rating, Prickly Sida",prickly sida; [5],85
same,"Plant response rating, Prickly Sida",prickly sida; [6],85
same,"Plant response rating, Prickly Sida",prickly sida; [7],100
same,"Plant response rating, Prickly Sida",prickly sida; [8],100
same,"Plant response rating, Prickly Sida",prickly sida; [3],95
same,"Plant response rating, Prickly Sida",prickly sida; [4],60
same,"Plant response rating, Purslane",common purslane; [1],100
same,"Plant response rating, Purslane",common purslane; [2],80
same,"Plant response rating, Purslane",common purslane; [3],75
same,"Plant response rating, Purslane",common purslane; [4],70
same,"Plant response rating, Groundsel",common groundsel; [2],100
same,"Plant response rating, Groundsel",common groundsel; [3],70
same,"Plant response rating, Bluegrass",annual bluegrass; [1],100
same,"Plant response rating, Bluegrass",annual bluegrass; [2],80
same,"Plant response rating, Bluegrass",annual bluegrass; [5],85
same,"Plant response rating, Bluegrass",annual bluegrass; [6],95
same,"Plant response rating, Bluegrass",annual bluegrass; [7],95
same,"Plant response rating, Bluegrass",annual bluegrass; [8],100
same,"Plant response rating, Bluegrass",annual bluegrass; [3],70
same,"Plant response rating, Bluegrass",annual bluegrass; [4],60
same,"Plant response rating, Itchgrass",itchgrass; [1],80
same,"Plant response rating, Itchgrass",itchgrass; [2],75
same,"Plant response rating, Itchgrass",itchgrass; [5],60
same,"Plant response rating, Itchgrass",itchgrass; [6],75
same,"Plant response rating, Itchgrass",itchgrass; [7],90
same,"Plant response rating, Itchgrass",itchgrass; [8],100
same,"Plant response rating, Itchgrass",itchgrass; [3],70
same,"Plant response rating, Itchgrass",itchgrass; [4],30
same,"Plant response rating, Quackgrass",quackgrass; [1],100
same,"Plant response rating, Quackgrass",quackgrass; [2],85
same,"Plant response rating, Quackgrass",quackgrass; [5],80
same,"Plant response rating, Quackgrass",quackgrass; [6],80
same,"Plant response rating, Quackgrass",quackgrass; [7],95
same,"Plant response rating, Quackgrass",quackgrass; [8],100
same,"Plant response rating, Quackgrass",quackgrass; [3],75
same,"Plant response rating, Quackgrass",quackgrass; [4],20
same,"Plant response rating, Bindweed, Field",field bindweed; [1],95
same,"Plant response rating, Bindweed, Field",field bindweed; [2],80
same,"Plant response rating, Bindweed, Field",field bindweed; [5],10
same,"Plant response rating, Bindweed, Field",field bindweed; [6],60
same,"Plant response rating, Bindweed, Field",field bindweed; [7],95
same,"Plant response rating, Bindweed, Field",field bindweed; [8],100
same,"Plant response rating, Bindweed, Field",field bindweed; [3],70
same,"Plant response rating, Bindweed, Field",field bindweed; [4],30
CCNC(=O)c1cccc(NC(=O)c2nn(C(C)(C)C)nc2C)c1 [Compound 392],"Plant response rating, Windgrass","windgrass; Postemergence, 500 g ai/ha, scale 0 to 100, 0 no effect, 100 complete control",65
same,"Plant response rating, Windgrass",windgrass; [3],55
same,"Plant response rating, Windgrass",windgrass; [4],35
same,"Plant response rating, Beggarticks, Bip.",bipinnate beggarticks; [6],10
same,"Plant response rating, Beggarticks, Bip.",bipinnate beggarticks; [7],80
same,"Plant response rating, Beggarticks, Bip.",bipinnate beggarticks; [8],100
same,"Plant response rating, Crabgrass, Large",large crabgrass; [5],75
same,"Plant response rating, Crabgrass, Large",large crabgrass; [6],95
same,"Plant response rating, Crabgrass, Large",large crabgrass; [7],95
same,"Plant response rating, Crabgrass, Large",large crabgrass; [8],95
same,"Plant response rating, Ragweed",common ragweed; [5],30
same,"Plant response rating, Ragweed",common ragweed; [6],30
same,"Plant response rating, Ragweed",common ragweed; [7],70
same,"Plant response rating, Ragweed",common ragweed; [8],100
same,"Plant response rating, Dallisgrass",dallisgrass; [5],10
same,"Plant response rating, Dallisgrass",dallisgrass; [6],60
same,"Plant response rating, Dallisgrass",dallisgrass; [7],75
same,"Plant response rating, Dallisgrass",dallisgrass; [8],100
same,"Plant response rating, Sowthistle",common sowthistle; [5],20
same,"Plant response rating, Sowthistle",common sowthistle; [6],95
same,"Plant response rating, Sowthistle",common sowthistle; [7],95
same,"Plant response rating, Sowthistle",common sowthistle; [8],95
same,"Plant response rating, Prickly Sida",prickly sida; [7],75
same,"Plant response rating, Prickly Sida",prickly sida; [8],100
same,"Plant response rating, Purslane",common purslane; [6],90
same,"Plant response rating, Purslane",common purslane; [7],100
same,"Plant response rating, Purslane",common purslane; [8],100
same,"Plant response rating, Groundsel",common groundsel; [5],10
same,"Plant response rating, Groundsel",common groundsel; [6],60
same,"Plant response rating, Groundsel",common groundsel; [7],60
same,"Plant response rating, Groundsel",common groundsel; [8],95
same,"Plant response rating, Bluegrass",annual bluegrass; [5],10
same,"Plant response rating, Bluegrass",annual bluegrass; [6],80
same,"Plant response rating, Bluegrass",annual bluegrass; [7],80
same,"Plant response rating, Bluegrass",annual bluegrass; [8],100
same,"Plant response rating, Itchgrass",itchgrass; [5],50
same,"Plant response rating, Itchgrass",itchgrass; [6],85
same,"Plant response rating, Itchgrass",itchgrass; [7],85
same,"Plant response rating, Itchgrass",itchgrass; [8],90
same,"Plant response rating, Quackgrass",quackgrass; [5],10
same,"Plant response rating, Quackgrass",quackgrass; [6],60
same,"Plant response rating, Quackgrass",quackgrass; [7],70
same,"Plant response rating, Quackgrass",quackgrass; [8],95
same,"Plant response rating, Bindweed, Field",field bindweed; [5],30
same,"Plant response rating, Bindweed, Field",field bindweed; [6],30
same,"Plant response rating, Bindweed, Field",field bindweed; [7],100
same,"Plant response rating, Bindweed, Field",field bindweed; [8],100

# Reference: US20060069132A1, “Azolecarboxamide herbicides” (priority 2004, published 2006)
